The source of these data is patent US5373040A, “Amorphous solid modification of 2,2',2"-nitrilo[triethyl-tris-(3,3',5,5'-tetra-tert-butyl-1,1'-biphenyl- 2,2'-diyl)phosphite]” (Ciba-Geigy Corporation, priority 1993, dated 1994).

Data set [1] is described as follows: Process stabilization of polypropylene: yellowness index of plaques (ASTM D1925). The note with it: in the presence of a representative phenolic antioxidant; versus prior art compound of U.S. Pat. No. 4,318,845. From the text:
(§1) The test additives are incorporated into the polypropylene by dry blending or, when the additive is a liquid, using a minimum amount of methylene chloride solvent. The solvent is then removed by evaporation under reduced pressure.

A short description of data set [2]: Process stabilization of polypropylene at 525° F.: melt flow rate (ASTM D1238). The note with it: in the presence of a representative phenolic antioxidant; versus prior art compound of U.S. Pat. No. 4,318,845. As for the experimental part: as §1
After each of the first, third and fifth extrusions, the melt flow rate (in grams/10 minutes) is determined by ASTM method D1238 on the pellets obtained from the extruder.

The nature of data set [3]: Solubility in lubricating oil (Mobil BB oil). The class given is physicochemical. On the procedure:
The following experiments are performed to determine the solubility of amorphous compound A and crystalline compound B in Mobil BB oil. Both compounds have the same uniform particle sizes (40-70 micron).
Compound A=amorphous form of 2,2',2"-nitrilo-[triethyl-tris-(3,3',5,5'-tetra-tert-butyl-1,1'-biphenyl-2,2'-diyl) phosphite], prepared in accordance with instant Example 1.
Compound B=crystalline form of 2,2',2"-nitrilo[triethyl-tris-(3,3',5,5'-tetra-tert-butyl-1,1'-biphenyl-2,2'-diyl) phosphite], prepared in accordance with Example 4 of U.S. Pat. No. 4,318,845.
Into a vial of 980 mg. of Mobil BB oil is added 20 mg. of compound A at ambient temperature. For the first 30 minutes, the vial is shaken every 10 minutes. After the initial 30 minutes, the vial is left standing.
Into a vial of 980 mg. of Mobil BB oil is added 20 mg. of compound B at ambient temperature. For the first 30 minutes, the vial is shaken every 10 minutes. After the initial 30 minutes, the vial is left standing.
Into a vial of 980 mg. of Mobil BB oil is added 20 mg. of compound A at ambient temperature. The vial is then placed into a 60° C. oil bath.
Into a vial of 980 mg. of Mobil BB oil is added 20 mg. of compound B at ambient temperature. The vial is then placed into a 60° C. oil bath.
Into a vial of 990 mg. of Mobil BB oil is added 10 mg. of compound A at ambient temperature. […] is shaken every 10 minutes. After the initial 30 minutes, the vial is left standing.
Into a vial of 990 mg. of Mobil BB oil is added 10 mg. of compound B at ambient temperature. […] is shaken every 10 minutes. After the initial 30 minutes, the vial is left standing.

Data set [4] can be described thus: Stabilization of polyol: discoloration or scorch of foam. As to conditions: 1000 ppm plus BHT 2000 ppm and NAUGARD 445 2000 ppm; versus control stabilizer package. On the procedure:
A premix of 10 g of water, 0.25 g of triethylenetetramine, 2 g of L-5740 (silicone surfactant, Union Carbide) and 20 g of ANTIBLAZE® AB-100 (chlorinated aromatic flame retardant, Albright & Wilson) is added to 200 g of 3000 molecular weight polyether polyol containing the stabilizer package listed below*. The mixture is stirred for five minutes with a high speed Lightning Mixer. Then 0.4 g of stannous octoate is added and the mixture is stirred for 5 seconds. Finally, 125 g of toluene diisocyanate ([…]) is added. The mixture is stirred for 7 seconds at high speed mixing and is then poured into a 10"×10"×5" (25.4 cm×25.4 cm×12.7 cm) cardboard box. The foam is allowed to rise completely. After standing 5 minutes, the box is removed and the sample cured in a microwave over for five minutes at 50% power. The foam is then immediately air over cured at 125° C. for three minutes. The foams are then cut in half for visual assessment of discoloration or scorch.
Control is 2,6-di-tert-butyl-4-methylphenol (BHT) 2000 ppm; and NAUGARD® 445 (diphenylamine antioxidant, Uniroyal) 2000 ppm.
Instant package is the above plus 1000 ppm of the compound of Example 1.

Setting [5] is: compared to the prior art crystalline form.

The structures appear in SMILES notation.

On to `CC(C)(C)c1cc(C(C)(C)C)c2op(OCCN(CCOp3oc4c(C(C)(C)C)cc(C(C)(C)C)cc4c4cc(C(C)(C)C)cc(C(C)(C)C)c4o3)CCOp3oc4c(C(C)(C)C)cc(C(C)(C)C)cc4c4cc(C(C)(C)C)cc(C(C)(C)C)c4o3)oc3c(C(C)(C)C)cc(C(C)(C)C)cc3c2c1` [Example 1, 2,2',2"-nitrilo[triethyl-tris-(3,3',5,5'-tetra-tert-butyl-1,1'-biphenyl-2,2'-diyl)phosphite]], for which, in data set [1], the “stabilizing polypropylene against discoloration (change in yellowness index)” value is listed as “equal or more effective”. For the same compound, in data set [2], the “stabilizing polypropylene against thermal and oxidative degradation (change in melt flow rate)” value is “equal or more effective”. Moreover, the Observation entry was “Clear solution” in data set [3] (1% by weight in Mobil BB oil, RT, 1.5 hrs., listed as A); “clear solution” in data set [3] (1% by weight in Mobil BB oil, RT, 1.5 hrs., listed as compound A); “Clear solution” in data set [3] (2% by weight in Mobil BB oil, 60° C. oil bath, 10 min., listed as A); “clear solution” in data set [3] (2% by weight in Mobil BB oil, 60° C. oil bath, 10 min., listed as compound A); “Clear solution” in data set [3] (2% by weight in Mobil BB oil, RT, 2.5 hrs., listed as A); “clear solution” in data set [3] (2% by weight in Mobil BB oil, RT, 2.5 hrs., listed as compound A). Moreover, the “Time to clear solution” value in data set [3] (1% by weight in Mobil BB oil, RT, listed as A) is 1.5 h; in data set [3] (1% by weight in Mobil BB oil, RT, listed as compound A), 1.5 h; in data set [3] (2% by weight in Mobil BB oil, 60° C. oil bath, listed as A) it was 0.167 h; in data set [3] (2% by weight in Mobil BB oil, 60° C. oil bath, listed as compound A) it was 0.167 h; in data set [3] (2% by weight in Mobil BB oil, RT, listed as A) it was 2.5 h; in data set [3] (2% by weight in Mobil BB oil, RT, listed as compound A), 2.5 h. Also, in data set [3] (setting [5]), the “rate of dissolving in lubricants” value is given as “faster rate of dissolving”. Besides, the “rate of dissolving in organic materials, such as in polymers and in lubricants” value in data set [3] (setting [5]) is given as “faster rate of dissolving”. Moreover, the solubility in lubricants result in data set [3] (setting [5]) is recorded as “better solubility”. Further, in data set [3] (setting [5]), the “solubility in organic materials, such as in polymers and in lubricants” value was “better solubility”. For the same compound, the “discoloration of foam (visual inspection)” value in data set [4] is given as “less discolored”. In data set [4], the scorch protection entry is “better scorch protection”.
